The source of these data is patent publication US8344008B2 (Janssen Pharmaceutica NV, priority 2007, dated 2013).

pKi: −log10 of the molar value. Counter-ions that a name gives are not always drawn.

The assay concerns the target T1, recombinant human LTA4 hydrolase (rhLTA4H) (Homo sapiens, UniProt P09960).
T1 construct: made in house; host or cells: Spodoptera frugiperda (Sf-9) cells, baculovirus (pFastBac1)
T1 sequence (P09960 1-611): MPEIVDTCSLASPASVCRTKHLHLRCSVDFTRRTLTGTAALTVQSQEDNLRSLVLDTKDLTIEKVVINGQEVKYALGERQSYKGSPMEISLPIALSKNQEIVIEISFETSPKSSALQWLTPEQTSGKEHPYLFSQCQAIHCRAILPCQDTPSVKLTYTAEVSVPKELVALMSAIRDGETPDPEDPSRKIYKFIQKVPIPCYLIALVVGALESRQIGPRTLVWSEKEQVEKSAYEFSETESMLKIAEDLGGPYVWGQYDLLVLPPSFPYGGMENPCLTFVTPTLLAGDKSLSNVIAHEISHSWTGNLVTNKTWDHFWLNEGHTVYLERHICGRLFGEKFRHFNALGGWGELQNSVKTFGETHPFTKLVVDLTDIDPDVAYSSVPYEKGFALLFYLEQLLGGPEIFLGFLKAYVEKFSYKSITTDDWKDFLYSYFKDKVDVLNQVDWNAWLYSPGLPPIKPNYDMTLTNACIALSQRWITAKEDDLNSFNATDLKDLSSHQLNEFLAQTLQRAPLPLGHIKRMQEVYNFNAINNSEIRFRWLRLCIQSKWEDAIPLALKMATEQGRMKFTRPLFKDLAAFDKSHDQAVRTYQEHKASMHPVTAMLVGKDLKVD
Briefly: Recombinant Human LTA4 Hydrolase Assay for LTA4 Hydrolase Inhibitor Activity. It counts as biochemical. Particulars: average of results obtained; LTB4 quantified by enzyme-linked immunoassay. The method in brief:
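LTB4 formation, quantified by EIA after 10 min at rt, was the read-out once 9 ng LTA4 (free acid) was added to recombinant human enzyme (36 ng, Sf-9 expressed) that had sat 10 min with compound. Buffer: 0.1 M potassium phosphate pH 7.4 with fatty-acid-free BSA; IC50 by 4-parameter fit.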
As for `NCC(=O)N1C[C@@H]2C[C@H]1CN2CCOc1ccc(Oc2nc3ccccc3s2)cc1` [Example 31, (S,S)-2-Amino-1-(5-{2-[4-(benzothiazol-2-yloxy)-phenoxy]-ethyl}-2,5-diaza-bicyclo[2.2.1]hept-2-yl)-ethanone], the pKi (in general, the Ki on a negative log10 scale, so that one unit is a factor of ten) was 7.12.
On to `CS(=O)(=O)N1[C@@H]2CC[C@H]1C[C@@H](NCCOc1ccc(Oc3nc4cc(F)ccc4s3)cc1)C2` [Example 233, meso-endo-{2-[4-(5-Fluoro-benzothiazol-2-yloxy)-phenoxy]-ethyl}-(8-methanesulfonyl-8-aza-bicyclo[3.2.1]oct-3-yl)-amine], for which the pKi was 6.65.
To `CC(=O)N[C@@H]1C[C@H]2CC[C@@H](C1)N2CCc1ccc(Oc2nc3ccc(Cl)cc3s2)cc1` [Example 163, meso-exo-N-(8-{2-[4-(6-Chloro-benzothiazol-2-yloxy)-phenyl]-ethyl}-8-aza-bicyclo[3.2.1]oct-3-yl)-acetamide] belongs 7.07.
To `NC(=O)N1C[C@H]2C[C@@H]1CN2CCc1ccc(Oc2nc3cccc(F)c3s2)cc1` [Example 245, (R,R)-5-{2-[4-(7-Fluoro-benzothiazol-2-yloxy)-phenyl]-ethyl}-2,5-diaza-bicyclo[2.2.1]heptane-2-carboxylic acid amide] belongs 7.92; to `NC(=O)N1CC2CCN(Cc3ccc(Oc4nc5ccccc5s4)cc3)C2C1` (centres unmarked) [Example 136, 1-[4-(Benzothiazol-2-yloxy)-benzyl]-hexahydro-pyrrolo[3,4-b]pyrrole-5-carboxylic acid amide], 7.62; to `CC(C)(C)OC(=O)N1CC(C(=O)N2C[C@@H]3C[C@H]2CN3CCOc2ccc(Oc3nc4ccccc4s3)cc2)C1` [Example 67, (S,S)-3-(5-{2-[4-(Benzothiazol-2-yloxy)-phenoxy]-ethyl}-2,5-diaza-bicyclo[2.2.1]heptane-2-carbonyl)-azetidine-1-carboxylic acid tert-butyl ester], 6.70.
With `CC(=O)N[C@H]1C[C@H]2CC[C@@H](C1)N2Cc1ccc(Cc2nc3ccccc3o2)cc1` [Example 6, meso-endo-N-[8-(4-Benzooxazol-2-ylmethyl-benzyl)-8-aza-bicyclo[3.2.1]oct-3-yl]-acetamide] the figure was 7.30; with `CS(=O)(=O)N1CCC2CN(Cc3ccc(Oc4nc5ccccc5s4)cc3)CC21` (centres unmarked) [Example 127, 2-[4-(1-Methanesulfonyl-hexahydro-pyrrolo[3,4-b]pyrrol-5-ylmethyl)-phenoxy]-benzothiazole], 6.56.
`CS(=O)(=O)N1C[C@@H]2C[C@H]1CN2CCc1ccc(Oc2nc3ccccc3s2)cc1` [Example 47, (S,S)-2-{4-[2-(5-Methanesulfonyl-2,5-diaza-bicyclo[2.2.1]hept-2-yl)-ethyl]-phenoxy}-benzothiazole]: the pKi was 7.24.
Consider `COC(=O)CCCN1CC2CN(Cc3ccc(Oc4nc5ccccc5s4)cc3)CC2C1` (centres unmarked) [Example 156, 4-{5-[4-(Benzothiazol-2-yloxy)-benzyl]-hexahydro-pyrrolo[3,4-c]pyrrol-2-yl}-butyric acid methyl ester], for which the pKi was 7.33.
Consider `c1ccc2sc(Oc3ccc(CCN4C[C@@H]5C[C@H]4CN5)cc3)nc2c1` [Example 7B, (S,S)-2-{4-[2-(2,5-Diaza-bicyclo[2.2.1]hept-2-yl)-ethyl]-phenoxy}-benzothiazole hydrochloride], for which the pKi is 8.00.
Consider `c1cc(CN2C[C@@H]3C[C@H]2CN3)cc(Oc2nc3ccccc3s2)c1` [Example 69, (S,S)-2-[3-(2,5-Diaza-bicyclo[2.2.1]hept-2-ylmethyl)-phenoxy]-benzothiazole hydrochloride], for which the negative logarithm of the Ki (pKi) is 6.35.
As to `CS(=O)(=O)N1C[C@H]2C[C@@H]1CN2CCc1ccc(Oc2nc3c(F)cccc3s2)cc1` [Example 241, (R,R)-4-Fluoro-2-{4-[2-(5-methanesulfonyl-2,5-diaza-bicyclo[2.2.1]hept-2-yl)-ethyl]-phenoxy}-benzothiazole], the negative-log Ki (pKi) was 6.55.
With `NC(=O)N1CC2CCN(Cc3ccc(Oc4nc5ccccc5s4)cc3)CC2C1` (single isomer, unassigned; (-)) [Example 142B, (−)-5-[4-(Benzothiazol-2-yloxy)-benzyl]-octahydro-pyrrolo[3,4-c]pyridine-2-carboxylic acid amide] the figure was 7.02; with `O=S(=O)(c1ccco1)N1CC2CN(Cc3ccc(Oc4nc5ccccc5s4)cc3)CC2C1` (centres unmarked) [Example 121, 2-{4-[5-(Furan-2-sulfonyl)-hexahydro-pyrrolo[3,4-c]pyrrol-2-ylmethyl]-phenoxy}-benzothiazole], 6.20.
As for `Cc1ccc2nc(Oc3ccc(CCN4C[C@H]5C[C@@H]4CN5S(C)(=O)=O)cc3)sc2c1` [Example 193, (R,R)-2-{4-[2-(5-Methanesulfonyl-2,5-diaza-bicyclo[2.2.1]hept-2-yl)-ethyl]-phenoxy}-6-methyl-benzothiazole], the pKi was 6.21.
With `CC(=O)N1[C@@H]2CC[C@H]1C[C@@H](N(C)Cc1ccc(Oc3nc4ccccc4s3)cc1)C2` [Example 74, meso-endo-1-(3-{[4-(Benzothiazol-2-yloxy)-benzyl]-methyl-amino}-8-aza-bicyclo[3.2.1]oct-8-yl)-ethanone] the figure was 6.62.
On to `NC(=O)N1CC2CN(CCc3ccc(Oc4nc5c(F)cccc5s4)cc3)CC2C1` (centres unmarked) [Example 147, 5-{2-[4-(4-Fluoro-benzothiazol-2-yloxy)-phenyl]-ethyl}-hexahydro-pyrrolo[3,4-c]pyrrole-2-carboxylic acid amide], for which the negative-log Ki (pKi) was 8.30.
Take `O=C(CO)N1CC2CN(Cc3ccc(Oc4nc5ccccc5s4)cc3)CC2C1` (centres unmarked) [Example 118, 1-{5-[4-(Benzothiazol-2-yloxy)-benzyl]-hexahydro-pyrrolo[3,4-c]pyrrol-2-yl}-2-hydroxy-ethanone]: the negative logarithm of the Ki (pKi) is 7.64.
`CS(=O)(=O)N1C[C@H]2C[C@@H]1CN2Cc1ccc(Oc2nc3ccc(F)cc3s2)cc1` [Example 201, (R,R)-6-Fluoro-2-[4-(5-methanesulfonyl-2,5-diaza-bicyclo[2.2.1]hept-2-ylmethyl)-phenoxy]-benzothiazole]: the pKi is 6.84.
To `NC(=O)N1[C@@H]2CC[C@H]1C[C@@H](NCCOc1ccc(Oc3nc4c(Cl)cccc4s3)cc1)C2` [Example 221, meso-endo-3-{2-[4-(4-Chloro-benzothiazol-2-yloxy)-phenoxy]-ethylamino}-8-aza-bicyclo[3.2.1]octane-8-carboxylic acid amide] belongs 6.10; to `CS(=O)(=O)N1CC2CCN(Cc3ccc(Oc4nc5ccccc5s4)cc3)C2C1` (centres unmarked) [Example 128, 2-[4-(5-Methanesulfonyl-hexahydro-pyrrolo[3,4-b]pyrrol-1-ylmethyl)-phenoxy]-benzothiazole], 6.92.
Consider `CS(=O)(=O)N1C[C@@H]2C[C@H]1CN2Cc1ccc(Oc2nc3ccc(F)cc3s2)cc1` [Example 230, (S,S)-6-Fluoro-2-[4-(5-methanesulfonyl-2,5-diaza-bicyclo[2.2.1]hept-2-ylmethyl)-phenoxy]-benzothiazole], for which the negative-log Ki (pKi) was 6.40.
With `CS(=O)(=O)N1CC2CCC(C1)N2CCOc1ccc(Oc2nc3cc(Cl)ccc3s2)cc1` [Example 256, meso-5-Chloro-2-{4-[2-(3-methanesulfonyl-3,8-diaza-bicyclo[3.2.1]oct-8-yl)-ethoxy]-phenoxy}-benzothiazole] the figure was 5.77; with `CS(=O)(=O)N[C@H]1C[C@H]2CC[C@@H](C1)N2CCc1ccc(Oc2nc3ccc(F)cc3s2)cc1` [Example 277, meso-endo-N-(8-{2-[4-(6-Fluoro-benzothiazol-2-yloxy)-phenyl]-ethyl}-8-aza-bicyclo[3.2.1]oct-3-yl)-methanesulfonamide], 7.77; with `CC(=O)N[C@@H]1C[C@H]2CC[C@@H](C1)N2CCc1ccc(Oc2nc3cccc(F)c3s2)cc1` [Example 254, meso-exo-N-(8-{2-[4-(7-Fluoro-benzothiazol-2-yloxy)-phenyl]-ethyl}-8-aza-bicyclo[3.2.1]oct-3-yl)-acetamide], 6.94.
To `O=C(Nc1ccncc1)N1CC2CN(Cc3ccc(Oc4nc5ccccc5s4)cc3)CC2C1` (centres unmarked) [Example 132, 5-[4-(Benzothiazol-2-yloxy)-benzyl]-hexahydro-pyrrolo[3,4-c]pyrrole-2-carboxylic acid pyridin-4-yl amide] belongs 7.74; to `CS(=O)(=O)N[C@@H]1C[C@H]2CC[C@@H](C1)N2Cc1ccc(Oc2nc3cccc(Cl)c3s2)cc1` [Example 215, meso-exo-N-{8-[4-(7-Chloro-benzothiazol-2-yloxy)-benzyl]-8-aza-bicyclo[3.2.1]oct-3-yl}-methanesulfonamide], 7.05.
As to `CC(C)(O)C(=O)N1C[C@@H]2C[C@H]1CN2Cc1ccc(Oc2nc3ccccc3s2)cc1` [Example 12, (S,S)-1-{5-[4-(Benzothiazol-2-yloxy)-benzyl]-2,5-diaza-bicyclo[2.2.1]hept-2-yl}-2-hydroxy-2-methyl-propan-1-one], the pKi is 7.51.
